Tests used:
Type in all cases: cell-based, human
imDAPs [1] = assay: imDAP expansion: cell morphology, cell number (Vi-cell cytometer), expansion fold, Population Doubling Time
Method: imDAPs were produced according to the method described in CN201910169525.0. The imDAPs (P0) were seeded on VTN-coated plates (1 μg/cm^2) at a density of 1×10^5 cells/cm^2 in the expansion medium (50% DMEM/F12, 50% Neurobasal™ medium, 1% (v/v) Glutamax, 2% (v/v) B27 (50×), 0.2 μM LDN193189, 3 μM CHIR99021, 100 ng/mL FGF8b) in the absence or presence of 5 μM Blebbistatin. In case where Blebbistatin is present, Blebbistatin was either removed 24 hrs after plating or present throughout the culture period. The medium was changed every day for 5 days.
imDAPs were produced according to the method described in CN201910169525.0. The imDAPs (P0) were seeded on VTN-coated plates (1 μg/cm^2) at a density of 1×10^5 cells/cm^2 in the expansion medium (50% DMEM/F12, 50% Neurobasal™ medium, 1% (v/v) Glutamax, 2% (v/v) B27 (50×), 3 μM CHIR99021, 100 ng/mL FGF8b, […]) in the absence or presence of 0.2 μM LDN193189. The medium was changed every day for 5 days.
imDAPs were produced according to the method described in CN201910169525.0. The imDAPs (P0) were seeded on VTN-coated plates (1 μg/cm^2) at a density of 1×10^5 cells/cm^2 in the expansion medium (50% DMEM/F12, 50% Neurobasal™ medium, 1% (v/v) Glutamax, 2% (v/v) B27 (50×), 0.2 μM LDN193189, 3 μM CHIR99021, 100 ng/mL FGF8b, 5 μM Blebbistatin). The medium was changed every day. When imDAPs reach 100% confluence (4-5 days), cells were passaged enzymatically with 1× TrypLE, centrifuged at 250 g for 5 minutes, counted and replaced on new VTN-coated plates (1 μg/cm^2) at a density of 1×10^5 cells/cm^2 in the expansion medium. imDAPs were continuously expanded for 6 passages. At each passage, imDAPs were harvested at an expansion fold 5˜10 (over the initial number of imDAPs plated).
imDAPs were produced according to the method described in CN201910169525.0. The imDAPs (P0) were seeded on DLL4-coated ([…]), VTN-coated (1 μg/cm^2) and DLL4/VTN-coated ([…]) plates at a low density of 1×10^4 cells/cm^2 respectively, and cultured in the expansion medium in the absence or presence of 5 µM SB431542. Medium was replaced every 3rd day until reaching 100% confluence (6 days) for cell collection. The typical cell morphology on day 4 was recorded (FIG. 4A). The cell number of each group was counted by Vi-cell cytometer (FIG. 4B). The cells of each group were stained with Foxa2-PE antibody (BD, #561589), the percentage of Foxa2+ imDAPs were analyzed by flow cytometry (FIG. 4C). The expansion medium used in this example contained the following components: 50% DMEM/F12, 50% Neurobasal™ medium, 1% (v/v) Glutamax, 1% (v/v) B27, 50 μg/ml ascorbic acid, 0.2 μM LDN193189, 100 ng/ml FGF8b, 3 μM CHIR99021 and 10 μM Y27632.
imDAPs were produced according to the method described in CN201910169525.0. The imDAPs (P0) were seeded on DLL4/VTN-coated (1 μg/cm^2 for each) plates at a low density of 1×10^4 cells/cm^2, and cultured in the expansion medium (EM1, EM2, EM3, EM4). Medium was replaced every 3rd day until reaching 100% confluence (6 days) for cell collection. EM1 used in Example 9 contained the following components: 50% DMEM/F12, 50% Neurobasal™ medium, 1% (v/v) Glutamax, 1% (v/v) B27 (50×), […], 3 μM CHIR99021, 5 μM SB431542 and 10 μM Y27632. EM2 used in Example 9 contained the following components: 50% DMEM/F12, 50% Neurobasal™ medium, 1% (v/v) Glutamax, 1% (v/v) B27 (50×), 50 μg/ml ascorbic acid, […] LDN193189, 3 μM CHIR99021, 5 μM SB431542 and 10 μM Y27632. EM3 used in Example 9 contained the following components: 50% DMEM/F12, 50% Neurobasal™ medium, 1% (v/v) Glutamax, 1% (v/v) B27 (50×), 50 μg/mL ascorbic acid, […], 100 ng/ml FGF8b, 3 μM CHIR99021, 5 μM SB431542 and 10 μM Y27632. EM4 used in Example 9 contained the following components: 50% DMEM/F12, 50% Neurobasal™ medium, 1% (v/v) Glutamax, 1% (v/v) B27 (50×), 50 μg/ml ascorbic acid, 0.2 μM LDN193189, 10 ng/ml FGF2, 3 μM CHIR99021, 5 μM SB431542 and 10 μM Y27632. […]

imDAPs [2] = assay: imDAP maturation: cell morphology, adhesion and cell yield; conditions: Example 12; 1 μM IWR1 for at least 3 days; day 7; FIG. 7D
Method: imDAPs were produced according to the method described in CN201910169525.0, and expanded as described in Example 10. […] MM-H used in Example 11 contained the following components: Neurobasal™ medium, 1% (v/v) Glutamax, 0.5 mM Db-cAMP sodium salt, 200 μM ascorbic acid, 20 ng/ml BDNF, 20 ng/ml GDNF, 1 ng/ml TGF-β3, 10 μM DAPT, HhPLT (0.5%, 1%, 2%). MM-B used in Example 11 contained the following components: Neurobasal, 1% (v/v) Glutamax, 0.5 mM Db-cAMP sodium salt, 200 μM ascorbic acid, 20 ng/ml BDNF, 20 ng/ml GDNF, 1 ng/ml TGF-β3, 10 μM DAPT, 2% (v/v) B27 (50×) (as control). The above HhPLT was produced from hPLT as follows. The hPLT was centrifuged at 3000 g for 30 min at 4° C. to obtain the supernatant, which was heated to 56° C. for 30 min. The suspension was finally cooled down to 4° C. at least 5 min, and spun at 3000 g for 30 min at 4° C. to obtain the HhPLT supernatant. Aliquots were prepared and stored at −80° C. until use. The above Medium was changed every 3rd day. On day 7, the imDAPs at early maturation stage were dissociated enzymatically with 1× TrypLE, centrifuged at 250 g for 5 minutes.
imDAPs were produced according to the method described in CN201910169525.0, and expanded as described in Example 10. […] Medium was changed every 3rd day. On day 7, the imDAPs at early maturation stage were dissociated enzymatically with 1× TrypLE, centrifuged at 250 g for 5 minutes. Cells were collected for RT-qPCR analysis of EN1, LMX1A, FOXA2, NURR1, SOX6 and TH gene expression. The maturation medium used in Example 12 contained the following components: Neurobasal™ medium, 1% (v/v) Glutamax, 1% (v/v) HhPLT, 0.5 mM Db-cAMP sodium salt, 200 μM ascorbic acid, 20 ng/mL BDNF, 20 ng/mL GDNF, 1 ng/mL TGF-β3, 10 μM DAPT.
imDAPs were produced according to the method described in CN201910169525.0, and expanded as described in Example 10. […] Cells were collected and counted by Vi-cell cytometer. The cells were analyzed by RT-qPCR for EN1, LMX1A, FOXA2, NURR1, SOX6 and TH gene expression. […]

imDAPs [3] = assay: Flow cytometry (FACS) analysis of FOXA2 expression in expanded imDAPs; conditions: Example 8; VTN or DLL4/VTN coating, with or without SB431542; FIG. 4C
Method: • 1. Individualize and collect cells by either Accutase or TrypLE treatment. • 2. Wash cells with 1 ml PBS and pellet cells at 250×g for 15 sec. • 3. Remove supernatant, add ˜200 μl of 4% PFA, mix and fix for 10 min at RT. • 4. Pellet cells at 350×g for 5 min. • 5. Wash cells by 1 ml of FACS buffer and pellet cells at 350×g for 5 min. • 6. Remove supernatant, add 200 μl/tube of FACS buffer/0.1% TritonX, mix for 10 min at RT. • 7. Wash cells by 1 ml of FACS buffer and pellet cells at 350×g for 5 min. • 8. Remove supernatant, add 200 μl/tube of primary antibody diluted in FACS buffer, mix gently, and incubate for 30 min at RT. • 9. Wash cells by 1 ml of FACS buffer and pellet cells at 350×g for 5 min. • 10. Remove supernatant, and add 200 μl of secondary antibody diluted in FACS buffer, mix gently, and incubate for 30 min at RT. • 11. Wash cells by 1 ml of FACS buffer and pellet cells at 300×g for 5 min. • 12. Remove supernatant, add 200 μl of FACS buffer, and run samples on the flow cytometry. (2) qRT-PCR • 1. For qRT-PCR analysis of mRNA gene expression, RNA should be harvested from at least 2×10^6 cells. • 2. Harvest cells, add 350 μl of buffer RLT+1% (vol/vol) s-mercaptoethanol to the well, transfer the lysate to a 1.5 ml tube, and put it immediately on ice. • 3. Perform RNA extraction using the Tiangen Kit (DP430), and follow the manufacturer's protocol ‘Purification of total RNA from animal and human cells’. • 4. When the RNA extraction was completed, determine the RNA concentration using a Nanodrop instrument. • 5. Perform the first-strand cDNA synthesis reaction with 1 μg of RNA using the HiScript TM II Q RT SuperMIX for qPCR(+gDNA wiper) Kit (Vazyme, #R223-01) for RT-qPCR. Follow the manufacturer's ‘First-Strand cDNA Synthesis’ protocol. This reaction would yield a 20 μl product. • 6. Dilute the 10 μl cDNA product in 80 μl of nuclease-free water. • 7. Pipette the diluted cDNA product (1 μl), Sybr green master mix (5 μl, Transgen, #AQ131) and 0.95 μM reverse/forward primer mix (4 μl) into a 384-well PCR plate in triplicate, either manually or using an automated pipetting robot. The complete primer panel included the target genes and the housekeeping gene (RPL13A). In the analysis, also included a sample of undifferentiated hPSCs to determine the gene expression levels relative to the expression in hPSCs. • 8. Analyze the samples by running a quantitative PCR on the LightCycler 480 instrument using a 40× cycle two-step protocol with a 60° C., 60 sec annealing/elongation step and a 95° C., 30 sec denaturation step. The average CT values from the three technical replicates were used for calculations of relative gene expression using the ΔΔCT method. For each gene, calculate the FC of the differentiated samples relative to the undifferentiated control sample using the housekeeping gene for normalization. Next, calculate the average of the FC values on the basis of the housekeeping gene. (3) Immunocytochemical Analysis • 1. Cell fixation: Remove the medium from the cells and wash with PBS. Add 4% (wt/vol) PFA (e.g., 200 μl to a well in a 48-well plate) and incubate at room temperature (RT) for 15 min. after incubation, wash the cells three times in PBS. • 2. Blocking: Remove PBS from the wells and add blocking solution to the cells, add enough volume to cover the cells. Leave the cells in blocking solution for 1 h at RT. • 3. Primary antibodies incubation: Remove the blocking solution from the cells and add the primary antibody solutions (˜100 μl/cm^2). […]

FGF2: fibroblast growth factor, used at 10 ng/ml
imDAP expansion (overall conclusion) (imDAPs [1]; Example 9): had no additional effects on imDAP expansion
cell morphology of expanded imDAPs (imDAPs [1]; Example 9, 10 ng/ml FGF2 (EM4), DLL4/VTN-coated, day 5, FIG. 5A): some obvious heterogeneous cells were observed

Cc1ccc2c(c1)C(=O)C1(O)CCN(c3ccccc3)C1=N2 (centres unmarked) [Blebbistatin]
imDAP expansion (cell morphology) (imDAPs [1]; Example 1, 5 μM Blebbistatin throughout culture vs no Blebbistatin or plating day only, VTN-coated plates, 5 days, FIG. 1A): supported better imDAP expansion

O=C(Nc1cccc2cccnc12)c1ccc(N2C(=O)[C@@H]3[C@H](C2=O)[C@@H]2C=C[C@H]3C2)cc1 [IWR1]
cell morphology during maturation (imDAPs [2]): showed more obvious neural fibers

NC(=O)c1ccc(-c2nc(-c3ccc4c(c3)OCO4)c(-c3ccccn3)[nH]2)cc1 [SB431542]
FOXA2 expression (percentage of Foxa2+ imDAPs) (imDAPs [3]): could improve FOXA2 expression

Reference: patent US12391919B2, “Culture medium, coating matrix and method for maturing midbrain dopaminergic progenitor cells” (NUWACELL BIOTECHNOLOGIES CO., LTD., priority 2022, dated 2025)
